Laboratory results reported in ChEMBL document CHEMBL4138123, “Design, synthesis and biological evaluation of novel pyrazolochalcones as potential modulators of PI3K/Akt/mTOR pathway and inducers of apoptosis in breast cancer cells” (Eur J Med Chem, 2017).

Experiments:
SNB-19 = test: Cytotoxicity against human SNB19 cells assessed as growth inhibition after 48 hrs by sulforhodamine B assay; type: functional; conditions: SNB-19, 48 h
A549 [1] = test: Cytotoxicity against human A549/ATCC cells assessed as cell growth at 0.01 uM after 48 hrs by sulforhodamine B assay relative to control; type: functional; conditions: A549, 48 h, read-out: Activity
MDA-MB-231 [2] = test: Cytotoxicity against human MDA-MB-231 cells assessed as cell growth at 0.1 uM after 48 hrs by sulforhodamine B assay relative to control; type: functional; conditions: MDA-MB-231, 48 h, read-out: Activity
NCI/ADR-RES [3] = test: Cytotoxicity against human NCI/ADR-RES cells assessed as cell growth at 0.01 uM after 48 hrs by sulforhodamine B assay relative to control; type: functional; conditions: read-out: Activity
SR [4] = test: Cytotoxicity against human SR cells assessed as cell growth at 10 uM after 48 hrs by sulforhodamine B assay relative to control; type: functional; conditions: read-out: Activity
U-251 = test: Cytotoxicity against human U251 cells assessed as growth inhibition after 48 hrs by sulforhodamine B assay; type: functional; conditions: U-251, 48 h
K562 = test: Cytotoxicity against human K562 cells assessed as cell growth at 1 uM after 48 hrs by sulforhodamine B assay relative to control; type: functional; conditions: K562, 48 h, read-out: Activity
NCI-H226 = test: Cytotoxicity against human NCI-H226 cells assessed as cell growth at 0.01 uM after 48 hrs by sulforhodamine B assay relative to control; type: functional; conditions: NCI-H226, 48 h, read-out: Activity
UO-31 = test: Cytotoxicity against human UO31 cells assessed as growth inhibition after 48 hrs by sulforhodamine B assay; type: functional; conditions: UO-31, 48 h
SF-268 [5] = test: Cytotoxicity against human SF268 cells assessed as cell growth at 0.1 uM after 48 hrs by sulforhodamine B assay relative to control; type: functional; conditions: SF-268, 48 h, read-out: Activity
CCRF-CEM [6] = test: Cytotoxicity against human CCRF-CEM cells assessed as cell growth at 10 uM after 48 hrs by sulforhodamine B assay relative to control; type: functional; conditions: read-out: Activity
Malme-3M = test: Cytotoxicity against human MALME-3M cells assessed as cell growth at 0.1 uM after 48 hrs by sulforhodamine B assay relative to control; type: functional; conditions: read-out: Activity
HOP-62 [7] = test: Cytotoxicity against human HOP62 cells assessed as cell growth at 0.01 uM after 48 hrs by sulforhodamine B assay relative to control; type: functional; conditions: HOP-62, 48 h, read-out: Activity
KM12 [8] = test: Cytotoxicity against human KM12 cells assessed as cell growth at 100 uM after 48 hrs by sulforhodamine B assay relative to control; type: functional; conditions: KM12, 48 h, read-out: Activity
TK-10 = test: Cytotoxicity against human TK10 cells assessed as cell growth at 0.01 uM after 48 hrs by sulforhodamine B assay relative to control; type: functional; conditions: TK-10, 48 h, read-out: Activity
KM12 [9] = test: Cytotoxicity against human KM12 cells assessed as cell growth at 0.01 uM after 48 hrs by sulforhodamine B assay relative to control; type: functional; conditions: KM12, 48 h, read-out: Activity
UACC-62 [10] = test: Cytotoxicity against human UACC62 cells assessed as cell growth at 1 uM after 48 hrs by sulforhodamine B assay relative to control; type: functional; conditions: UACC-62, 48 h, read-out: Activity
KM12 [11] = test: Cytotoxicity against human KM12 cells assessed as cell growth at 0.1 uM after 48 hrs by sulforhodamine B assay relative to control; type: functional; conditions: KM12, 48 h, read-out: Activity
MCF7 = test: Cytotoxicity against human MCF7 cells assessed as growth inhibition after 48 hrs by MTT assay; type: functional, cell-based; conditions: MCF7, 48 h
MDA-MB-231 [12] = test: Cytotoxicity against human MDA-MB-231 cells assessed as cell growth at 10 uM after 48 hrs by sulforhodamine B assay relative to control; type: functional; conditions: MDA-MB-231, 48 h, read-out: Activity
NCI-H460 = test: Cytotoxicity against human NCI-H460 cells assessed as cell growth at 0.01 uM after 48 hrs by sulforhodamine B assay relative to control; type: functional; conditions: NCI-H460, 48 h, read-out: Activity
CCRF-CEM [13] = test: Cytotoxicity against human CCRF-CEM cells assessed as cell growth at 0.1 uM after 48 hrs by sulforhodamine B assay relative to control; type: functional; conditions: read-out: Activity
UACC-62 [14] = test: Cytotoxicity against human UACC62 cells assessed as cell growth at 0.1 uM after 48 hrs by sulforhodamine B assay relative to control; type: functional; conditions: UACC-62, 48 h, read-out: Activity
A498 [15] = test: Cytotoxicity against human A498 cells assessed as growth inhibition after 48 hrs by sulforhodamine B assay; type: functional; conditions: A498, 48 h
NCI-H23 [16] = test: Cytotoxicity against human NCI-H23 cells assessed as cell growth at 0.1 uM after 48 hrs by sulforhodamine B assay relative to control; type: functional; conditions: NCI-H23, 48 h, read-out: Activity
HOP-62 [17] = test: Cytotoxicity against human HOP62 cells assessed as cell growth at 100 uM after 48 hrs by sulforhodamine B assay relative to control; type: functional; conditions: HOP-62, 48 h, read-out: Activity
NCI/ADR-RES [18] = test: Cytotoxicity against human NCI/ADR-RES cells assessed as cell growth at 0.1 uM after 48 hrs by sulforhodamine B assay relative to control; type: functional; conditions: read-out: Activity
NCI-H23 [19] = test: Cytotoxicity against human NCI-H23 cells assessed as cell growth at 0.01 uM after 48 hrs by sulforhodamine B assay relative to control; type: functional; conditions: NCI-H23, 48 h, read-out: Activity
SR [20] = test: Cytotoxicity against human SR cells assessed as cell growth at 0.01 uM after 48 hrs by sulforhodamine B assay relative to control; type: functional; conditions: read-out: Activity
A498 [21] = test: Cytotoxicity against human A498 cells assessed as cell growth at 100 uM after 48 hrs by sulforhodamine B assay relative to control; type: functional; conditions: A498, 48 h, read-out: Activity
DU-145 = test: Cytotoxicity against human DU145 cells assessed as cell growth at 1 uM after 48 hrs by sulforhodamine B assay relative to control; type: functional; conditions: DU-145, 48 h, read-out: Activity
A549 [22] = test: Cytotoxicity against human A549/ATCC cells assessed as cell growth at 1 uM after 48 hrs by sulforhodamine B assay relative to control; type: functional; conditions: A549, 48 h, read-out: Activity
SF-268 [23] = test: Cytotoxicity against human SF268 cells assessed as cell growth at 10 uM after 48 hrs by sulforhodamine B assay relative to control; type: functional; conditions: SF-268, 48 h, read-out: Activity
PC-3 = test: Cytotoxicity against human PC3 cells assessed as cell growth at 1 uM after 48 hrs by sulforhodamine B assay relative to control; type: functional; conditions: PC-3, 48 h, read-out: Activity
NCI-H522 = test: Cytotoxicity against human NCI-H522 cells assessed as cell growth at 0.01 uM after 48 hrs by sulforhodamine B assay relative to control; type: functional; conditions: NCI-H522, 48 h, read-out: Activity
Hs-578T = test: Cytotoxicity against human Hs 578T cells assessed as cell growth at 0.01 uM after 48 hrs by sulforhodamine B assay relative to control; type: functional; conditions: read-out: Activity
MDA-MB-435 = test: Cytotoxicity against human MDA-MB-435 cells assessed as cell growth at 0.1 uM after 48 hrs by sulforhodamine B assay relative to control; type: functional; conditions: MDA-MB-435, 48 h, read-out: Activity

`COc1cc(-c2cc(/C=C/C(=O)c3ccc(N)cc3)[nH]n2)cc(OC)c1OC` gave a GI50 (SNB-19) of 2340 nM, a TGI (SNB-19) of 9980 nM and a CC50 (SNB-19; read-out: LC50 (the source's name)) of 34000 nM. It also gave a growth at 0.01 µM (A549 [1]) of 96%, a growth at 0.1 µM (MDA-MB-231 [2]) of 91% and a growth at 0.01 µM (NCI/ADR-RES [3]) of 106%. For the same compound, the growth at 10 µM (SR [4]) was -18%, the GI50 (U-251) was 1420 nM and the LC50 (U-251) was 5390 nM. The TGI (U-251) was 2770 nM, the growth at 1 µM (K562) was 43% and the growth at 0.01 µM (NCI-H226) was 92%. The GI50 (UO-31) was 1360 nM, the LC50 (UO-31) was 6000 nM and the TGI (UO-31) was 2860 nM. The growth at 0.1 µM (SF-268 [5]) was 106%, the growth at 10 µM (CCRF-CEM [6]) was -22% and the growth at 0.1 µM (Malme-3M) was 102%. The growth at 0.01 µM (HOP-62 [7]) was 83%, the growth at 100 µM (KM12 [8]) was -79% and the growth at 0.01 µM (TK-10) was 102%. The growth at 0.01 µM (KM12 [9]) was 102%, the growth at 1 µM (UACC-62 [10]) was 86% and the growth at 0.1 µM (KM12 [11]) was 98%. The IC50 (MCF7) was 1600 nM, the growth at 10 µM (MDA-MB-231 [12]) was 7% and the growth at 0.01 µM (NCI-H460) was 102%. The growth at 0.1 µM (CCRF-CEM [13]) was 91%, the growth at 0.1 µM (UACC-62 [14]) was 99% and the GI50 (A498 [15]) was 1640 nM. It also gave an LC50 (A498 [15]) of 13400 nM, a TGI (A498 [15]) of 4330 nM and a growth at 0.1 µM (NCI-H23 [16]) of 105%. The growth at 100 µM (HOP-62 [17]) was -98%, the growth at 0.1 µM (NCI/ADR-RES [18]) was 110% and the growth at 0.01 µM (NCI-H23 [19]) was 102%. The growth at 0.01 µM (SR [20]) was 92%, the growth at 100 µM (A498 [21]) was -96% and the growth at 1 µM (DU-145) was 78%. The growth at 1 µM (A549 [22]) was 80%, the growth at 10 µM (SF-268 [23]) was -55% and the growth at 1 µM (PC-3) was 76%. For the same compound, the growth at 0.01 µM (NCI-H522) was 92%, the growth at 0.01 µM (Hs-578T) was 95% and the growth at 0.1 µM (MDA-MB-435) was 95%.
